Experimental data: patent US20040063787A1, “Vaginal health products” (priority 2002, published 2004)
“Also recorded” adds a separate entry of the source.

Key:
Type in all cases: cell-based, human
ME-180 cells = experiment: Toxicity & proliferation experiments, ME-180 cell counting; conditions: for effect on ME-180 cell growth: 1 nM, 10 nM, and 100 nM; for ME-180 cell number / cell growth versus no retinoic acid (negative control): 1 μM or 10 μM (micromolar concentrations)
Method: Cell Lines. Human cervical epithelial cells (ME-180, ATCC) were propagated in culture at 37° C. in a 5% CO2 atmosphere in McCoy's 5A media (Invitrogen) with 10% heat-inactivated fetal bovine serum (Invitrogen). All trans-, 9-cis-, and 13-cis-retinoic acids were purchased from ICN Biomedicals. Retinoic acid stock solutions were made up in DMSO.
Toxicity & Proliferation Experiments. Cellular toxicity/proliferation experiments were performed by first washing the ME-180 cells with HBSS, and adding 3 mL of trypsin (0.25%) with EDTA to the T75 flask for 15 minutes. ME-180 cells in trypsin were added to 7 mL of McCoy's 5A media with 10% FBS. ME-180 cells were centrifuged for 5 minutes, and the supernatant was removed. ME-180 cells were resuspended in 10 mL of McCoy's 5A media with 10% FBS for counting. ME-180 cells were centrifuged for 5 minutes, and the supernatant was removed. ME-180 cells were resuspended at 6×10^4 cells per mL (62 mL total volume). One milliliter was added to each of 60 wells in a total of three 24-well plates. ME-180 cells were allowed to adhere to the wells overnight. The media was then removed from the ME-180 cells, and the cells were washed one time with 1 mL of HBSS. One mL of McCoy's 5A media with 10% FBS was added in duplicate on each plate containing the retinoic acids in various concentrations (0-10 μM). ME-180 cells in each plate were counted on day 1, 2, or 3 after the addition of the retinoic acid-containing media.
Cell counting. Media was removed from the ME-180 cells, and the cells were washed one time with 1 mL of HBSS. Trypsin was added (150 μL) to each well for ˜15 minutes to remove cells. One mL of McCoy's 5A media with 10% FBS was added to each well. ME-180 cells were mixed thoroughly and counted using a hemocytometer.
Cell Proliferation of ME-180 Cells. ME-180 cells were incubated with vitamin A derivatives for a period of up to 3 days. ME-180 cells were counted on each day.

P2Y2 receptor gene = experiment: RT-PCR expression assay of P2Y2 in ME-180 cells; conditions: 100 nM
Method: (§1) RNA Extraction from ME-180 cells. ME-180 cells were plated at 2×10^5 cells per T25 flask (5 mL total volume) and were allowed to propagate for four days. On day four, the media was removed. Five mL of McCoy's 5A media with 10% FBS containing 0, 10 nM, 100 nM, or 1 μM trans-retinoic acid were added to ME-180 cells in duplicate. ME-180 cells were incubated with these solutions for 4, 8, 16, or 24 hours. The media was removed, and 700 μL of lysis buffer was added to the flasks. The cells were scraped off of the flask with a cell scraper. The RNA was isolated using the Ambion RNAqueous kit according to the manufacturer's instructions. Precipitated RNA was resuspended in DEPC-treated water with 1 μL of RNase inhibitor. Total cervical RNA used as a control was purchased from Ambion, Inc.
(§2) Reverse Transcripton of RNA. Approximately 7 μL of RNA was incubated with 3 μL of primer at 80° C. for 10 minutes then immediately placed on ice. A master mix containing 4 μL DEPC water, 4 μL 5× reaction buffer, 1 μL dNTPs, 1 μL of RNase inhibitor, and 1 μL of reverse transcriptase was made for the reactions. Ten μL of master mix was added to the RNA/primer solution and placed at 42° C. for 2 hours. The resulting cDNA was incubated with 3.5 μL of NaOH solution at 70° C. for 10 minutes to hydrolyze the remaining RNA. Five μL of 0.5M Tris/EDTA was added to neutralize the solution. […]

[1] = system: estrogen receptor alpha (ER-α) gene; experiment: RT-PCR expression assay of ER-α in ME-180 cells; conditions: 100 nM, no serum, 4, 8, and 16 hours, FIG. 4 lanes 4-6, listed as vitamin A
Method: as §1, with “Five mL of McCoy's 5A media with 10% FBS containing 0, 10 nM, 100 nM, or 1 μM trans-retinoic acid were added to ME-180 cells in duplicate.” left out
as §2, with “solution. To precipitate the cDNA, 125 μL of 3M NH4OAc, 5 μL of linear polyacrylamide, and 700 μL of absolute ethanol were added.” for “solution.”

[2] = system: vascular endothelial growth factor (VEGF); experiment: RT-PCR expression assay of VEGF in ME-180 cells; conditions: 100 nM, 4, 8, and 16 hours, FIG. 5
Method: as §1, §2

mucin-4 (MUC-4) = experiment: RT-PCR expression assay of mucin-4 in ME-180 cells; conditions: 100 nM, absence of serum
Method: as §1, with “Five mL of McCoy's 5A media with 10% FBS containing 0, 10 nM, 100 nM, or 1 μM trans-retinoic acid were added to ME-180 cells in duplicate.” left out
as §2, with “solution. To precipitate the cDNA, 125 μL of 3M NH4OAc, 5 μL of linear polyacrylamide, and 700 μL of absolute ethanol were added.” for “solution.”

Row | Structure (SMILES) | effect on ME-180 cell growth (ME-180 cells; up to 3 days, FIG. 1) | toxicity to ME-180 cells (ME-180 cells; micromolar concentrations) | ME-180 cell growth versus negative control (ME-180 cells; micromolar concentrations, two days, FIG. 2) | toxicity (overall conclusion of the experiments) (ME-180 cells) | growth compared with cells exposed to other agents or to no agents (ME-180 cells; 1 nM to 100 nM, up to 3 days, FIG. 1) | ME-180 cell number / cell growth versus no retinoic acid (negative control) (ME-180 cells; two days, FIG. 2) | ME-180 cell number / cell growth versus no retinoic acid (negative control) (ME-180 cells; two days, FIG. 2, listed as Vitamin A) | P2Y2 expression (PCR product) (P2Y2 receptor gene; in the absence of serum, FIG. 3 lanes 8-11) | P2Y2 expression (PCR product) (P2Y2 receptor gene; in the presence of serum, FIG. 3 lanes 4-6) | ER-α gene expression (PCR product) [1] | VEGF expression (PCR product) [2] | MUC-4 expression (PCR product) (mucin-4 (MUC-4); 4 hours or 8 hours, FIG. 6 lanes 4 and 5) | MUC-4 expression (PCR product) (mucin-4 (MUC-4); 16 hours, FIG. 6 lane 6)
1 | CC1=C(/C=C/C(C)=C\C=C\C(C)=C\C(=O)O)C(C)(C)CCC1 [9-cis-retinoic acid] | little effect on cell growth | – | – | – | – | – | – | – | – | – | – | – | –
2 | CC1=C(/C=C/C(C)=C/C=C/C(C)=C\C(=O)O)C(C)(C)CCC1 [13-cis-retinoic acid] | little effect on cell growth | toxic | did not grow as well as the negative control | – | – | – | – | – | – | – | – | – | –
3 | CC1=C(/C=C/C(C)=C/C=C/C(C)=C/C(=O)O)C(C)(C)CCC1 [trans-retinoic acid] | little effect on cell growth | – | – | nontoxic | growing slightly faster | more cells were present | increases cervical cell growth | increase in P2Y2 expression | increase in P2Y2 expression | the ER-α gene was expressed; also recorded: increase in ER-α expression | increased the expression | detectable | decreases but is still detectable
